Some test systems named below: HCC-2998 colon; HCT-116 colon; HL-60(TB) leukemia; OVCAR-8 ovarian; SK-MEL-2 melanoma; SK-MEL-5 melanoma; SN12C renal; SNB-19 CNS; SR leukemia; SNB-75 CNS.
Holding throughout (assay): inhibition of tumour cell growth, NCI panel, 48 h

The structures appear in SMILES notation. Where “and” joins values, the source holds several entries; their conditions need not be identical. Identical values can stand only once.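 Assay format: 96-well plates, 48-hour exposure. GI50 is the concentration that inhibits growth by half. TGI denotes the concentration required for complete inhibition of growth.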

Regarding `COc1cc(OC)c2nc(C)c3c(c2c1)SCC3`, the TGI in the test with HCC-2998 colon is greater than 100 µM; with HCT-116 colon, 48.5 µM; in the test on HL-60(TB) leukemia it was greater than 100 µM; with OVCAR-8 ovarian, 35.4 µM; in the test with SK-MEL-2 melanoma it was 67.5 µM; with SK-MEL-5 melanoma, 49.8 µM. Further, the values for the TGI with SN12C renal, with SNB-19 CNS and in the test with SR leukemia were 57.9 µM, 34.8 µM and 52.2 µM, respectively.

As to `CC1(C)CC(O)C(C)(C)[C@@H](O)C1` (stereo partly drawn), the TGI in the test with HCC-2998 colon, in the test with HCT-116 colon, with HL-60(TB) leukemia, in the test with OVCAR-8 ovarian, with SK-MEL-2 melanoma and in the test on SK-MEL-5 melanoma was greater than 100 µM each time. The TGI with SN12C renal, in the test with SNB-19 CNS and in the test on SNB-75 CNS was greater than 100 µM in each case.

For `CC[C@@]1(O)C(=O)OCc2c1cc1n(c2=O)Cc2cc3cc4c(cc3nc2-1)OCO4`, the TGI is 0.208 µM with HCC-2998 colon; 0.136 µM and 1.27 µM with HCT-116 colon; 0.369 µM with OVCAR-8 ovarian; 0.173 µM and 0.997 µM in the test on SK-MEL-2 melanoma; 0.0721 µM and < 0.0281 µM with SK-MEL-5 melanoma; less than 0.0125 µM in the test on SN12C renal. For the same molecule, the TGI in the test with SR leukemia is greater than 100 µM. Moreover, the GI50 with HCT-116 colon was less than 0.001 µM; in the test on SK-MEL-2 melanoma, 0.204 µM.

Take `NC(=O)CN(CC(N)=O)C(N)=O`: the TGI in the test with HCT-116 colon, in the test with HL-60(TB) leukemia, with OVCAR-8 ovarian, with SK-MEL-2 melanoma, in the test with SK-MEL-5 melanoma and in the test with SNB-19 CNS was greater than 100 µM each time. Also, the TGI in the test on SNB-75 CNS was greater than 100 µM.

As to `COc1ccc2c(CN3CCCC[C@H]3C(=O)O)cc3cc4c(cc3c2c1)OCO4`, the GI50 in the test with HCC-2998 colon was 3.56 µM; with OVCAR-8 ovarian, 0.457 µM; in the test on SK-MEL-5 melanoma it was 1.25 µM; in the test on SN12C renal, 1 µM; in the test on SNB-19 CNS it was 1.59 µM; with SNB-75 CNS it was 0.397 µM. Further, the TGI with HCC-2998 colon is greater than 100 µM; in the test with OVCAR-8 ovarian, 11.7 µM; in the test with SK-MEL-5 melanoma, 2.5 µM; in the test with SN12C renal, 4.31 µM; with SNB-19 CNS, 5.74 µM; with SNB-75 CNS, 2.28 µM.

As for `Cc1ccc2c(c1)-c1c3c(nn1-c1ccccc1)-c1ccccc1SC3O2` (stereo not drawn), the TGI in the test on HCC-2998 colon, with HCT-116 colon, with HL-60(TB) leukemia, in the test on OVCAR-8 ovarian, in the test with SK-MEL-2 melanoma and in the test with SNB-75 CNS was greater than 100 µM in each case.

For `COc1cc(OC)c(C/C=C/c2ccccc2)cc1O`, the TGI in the test with HCC-2998 colon was 29.8 µM; in the test with HCT-116 colon, 30 µM; with HL-60(TB) leukemia, 52.2 µM; in the test on OVCAR-8 ovarian, 32.8 µM; in the test on SK-MEL-2 melanoma, 41.8 µM; with SK-MEL-5 melanoma, 29.3 µM. Besides, the TGI in the test on SN12C renal turned out to be 32.7 µM; in the test on SNB-19 CNS, 29.3 µM; with SNB-75 CNS, 33.9 µM.

With `C/C(=N/NC(=S)N1CCCCC1)c1ccccc1O`, the TGI in the test with HCC-2998 colon was greater than 31.6 µM; in the test on HL-60(TB) leukemia, greater than 31.6 µM; in the test with OVCAR-8 ovarian, greater than 31.6 µM; with SK-MEL-2 melanoma it was greater than 31.6 µM; in the test on SK-MEL-5 melanoma, greater than 100 µM; in the test on SN12C renal, greater than 31.6 µM. In the test on SNB-19 CNS, this molecule displayed a TGI greater than 31.6 µM.

For `C=C1C(O)C2C(=C(CC)C13CC3)C(=O)C(C)(C)C2OC` (stereo not drawn), the GI50 with HCT-116 colon is 28.3 µM; with OVCAR-8 ovarian, 53.1 µM; in the test on SK-MEL-2 melanoma it was greater than 100 µM; in the test with SK-MEL-5 melanoma it was 42.6 µM; in the test on SN12C renal it was 74.2 µM; with SNB-19 CNS, greater than 100 µM. In addition, the GI50 in the test on SR leukemia was 23.5 µM. For the same molecule, the TGI with HCT-116 colon, in the test with OVCAR-8 ovarian, in the test on SK-MEL-2 melanoma, in the test with SK-MEL-5 melanoma, in the test with SN12C renal and with SNB-19 CNS was greater than 100 µM in each case. In the test with SR leukemia, the TGI was 68 µM.

Consider `CCCCCCCCCCCCCCCC(=O)OCC1OC(n2cc(F)c(=O)[nH]c2=O)C(N)C(O)C1O` (stereo not drawn), for which the TGI is 27.8 µM in the test with HCC-2998 colon; 34.4 µM in the test on HCT-116 colon; 37.4 µM with HL-60(TB) leukemia; 37.1 µM in the test on OVCAR-8 ovarian; 33.1 µM in the test with SK-MEL-5 melanoma; 32.4 µM in the test with SN12C renal. The TGI with SNB-19 CNS was determined as 39.2 µM; in the test on SNB-75 CNS, 38.6 µM.

In the case of `NC(=O)N/N=C1/CCC(O)CC1CC(=O)O` (stereo not drawn), the TGI in the test on HCT-116 colon was greater than 100 µM; in the test with HL-60(TB) leukemia it was 31.9 µM; in the test on OVCAR-8 ovarian, greater than 100 µM; in the test on SK-MEL-2 melanoma it was greater than 100 µM; with SK-MEL-5 melanoma it was greater than 100 µM; with SN12C renal it was greater than 100 µM. Further, the TGI in the test on SNB-19 CNS and with SR leukemia was greater than 100 µM each time.

Regarding `CC(=O)[CH-]C(=O)c1ccccc1.CC(=O)[CH-]C(=O)c1ccccc1.CC[O-].CC[O-].[Hf+4]`, the GI50 in the test with HCC-2998 colon, in the test with HCT-116 colon, in the test on HL-60(TB) leukemia, with OVCAR-8 ovarian, with SK-MEL-2 melanoma and in the test on SK-MEL-5 melanoma was greater than 100 µM throughout. Moreover, the GI50 in the test on SN12C renal, in the test with SNB-19 CNS and in the test on SNB-75 CNS was greater than 100 µM in each case. The TGI with HCC-2998 colon, in the test on HCT-116 colon, in the test with HL-60(TB) leukemia, in the test with OVCAR-8 ovarian, with SK-MEL-2 melanoma and in the test on SK-MEL-5 melanoma was greater than 100 µM in each case. For the same molecule, the TGI with SN12C renal, in the test on SNB-19 CNS and in the test on SNB-75 CNS was greater than 100 µM in each case.

`COc1ccc(/C=C/c2cc(OC)c(OC)c(OC)c2)cc1`: the TGI was 15.7 µM with HCC-2998 colon; greater than 77.2 µM with HCT-116 colon; greater than 100 µM in the test with OVCAR-8 ovarian; 52.8 µM with SK-MEL-2 melanoma; greater than 85.4 µM in the test with SK-MEL-5 melanoma; greater than 100 µM with SN12C renal. In addition, the figures for the TGI in the test with SNB-19 CNS and in the test on SNB-75 CNS were greater than 100 µM and greater than 21.7 µM, respectively.

`CSc1nnc(CCC(=O)Nc2c(C)cccc2C)o1`: the TGI with HCC-2998 colon, with HCT-116 colon, with HL-60(TB) leukemia, in the test on OVCAR-8 ovarian, in the test on SK-MEL-2 melanoma and in the test on SK-MEL-5 melanoma was greater than 100 µM in each case. Also, the TGI in the test with SN12C renal, with SNB-19 CNS and with SNB-75 CNS was greater than 100 µM throughout.

For the origin of these results see PubChem BioAssay (NCI).
